Experimental data reported in patent US20070197509A1, “Compositions and methods for modulating gated ion channels” (PainCeptor Pharma Corporation, priority 2005, published 2007).
Each block holds one compound with its values, some of them ahead of it.

Legend:
[1] = test system: hASIC3 (h3) and/or hASIC1a (h1a); assay: FlexStation/FLIPR assay, channel not marked in the cell; assay type: cell-based, human; settings: FlexStation, Table C
From the text: (§1) The MES-induced peak calcium response (or change in membrane potential), in the presence of test substance, is expressed relative to the MES response alone. Test substances that block the MES-induced calcium response (or change in membrane potential) are re-tested in triplicates. Confirmed hits are picked for further characterization by performing full dose-response curves to determine potency of each hit compound as represented by the IC50 values (i.e., the concentration of the test substance which inhibits 50% of the MES-induced calcium and/or membrane potentiation response; see, for example, FIG. 1).
(§2) The data shown in Table H was acquired using the FlexStation assay described in Example 1 on HEK293 cells expressing hASIC3 (h3) and/or hASIC1a (h1a).

hASIC1a [2] = target: T1, hASIC1a (Homo sapiens, UniProt P78348); assay: FlexStation/FLIPR calcium-imaging assay, acid (MES)-induced response in ASIC1a expressing cells; assay type: cell-based; design: expressed in transfected cells
T1 sequence (P78348 1-528): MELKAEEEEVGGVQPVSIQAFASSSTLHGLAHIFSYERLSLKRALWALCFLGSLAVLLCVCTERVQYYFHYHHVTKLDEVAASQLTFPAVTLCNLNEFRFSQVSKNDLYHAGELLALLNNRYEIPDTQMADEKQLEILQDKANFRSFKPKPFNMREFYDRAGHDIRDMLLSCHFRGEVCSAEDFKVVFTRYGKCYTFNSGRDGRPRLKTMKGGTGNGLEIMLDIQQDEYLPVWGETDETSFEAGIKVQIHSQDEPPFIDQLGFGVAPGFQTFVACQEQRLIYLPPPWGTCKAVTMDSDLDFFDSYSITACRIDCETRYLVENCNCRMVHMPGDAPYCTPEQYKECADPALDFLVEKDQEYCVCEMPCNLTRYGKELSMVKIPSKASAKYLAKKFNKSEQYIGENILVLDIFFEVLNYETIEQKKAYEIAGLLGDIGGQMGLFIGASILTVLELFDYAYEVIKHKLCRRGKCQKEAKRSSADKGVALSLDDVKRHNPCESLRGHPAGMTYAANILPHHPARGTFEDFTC
Description: Identification of ASIC Antagonists Using Calcium-Imaging
ASIC1a expressing HEK293 or CHO cells are grown in culture medium (DMEM with 10% FBS), in polystyrene culture flasks ([…]) at 37° C. in a humidified atmosphere of 5% CO2. Confluency of cells should be 80-90% on day of plating. Cells are rinsed with 10 ml of PBS and re-suspended by addition of culture medium and trituration with a 25 ml pipette.
The cells are seeded at a density of approximately 1×10^5 cells/ml for HEK293 and 8×10^4 for CHO cells (100 μl/well) in black-walled, clear bottom, poly-D-lysin pre-treated 96-well plates. Plated cells were allowed to proliferate for 48 h before loading with dye.
Fluo-4/AM (1 mg, Molecular Probes) is dissolved in 912 μl DMSO. The Fluo-4/AM stock solution (1 mM) is diluted with culture medium to a final concentration of 2 μM (loading solution).
The culture medium is aspirated from the wells, and 80 μl of the Fluo-4/AM loading solution is added to each well. The cells are incubated at 37° C. for 30 min. When CHO cells are used, probenicid at 2.5 mM (final concentration) is added in the loading solution.
After the loading period (15-20 min., the loading solution is aspirated and the cells are washed twice with 100 μl modified Assay Buffer (145 mM NaCl, 5 mM KCl, 5 mM CaCl2, 1 mM MgCl2, 10 mM HEPES, pH 7.4) to remove extracellular dye. Following the second wash, 100 μl modified Assay Buffer is added to each well and the fluorescence is measured in FLIPR™ or FlexStation™ (Molecular Devices, USA), or any other suitable equipment known to the skilled in the art. When CHO cells are used, probenicid at 2.5 mM (final concentration) is added in the wash buffer.
First addition: 50 μl test solution at a rate of 26 μl/sec and a starting height of 125 μl
Second addition: 50 μl MES solution (20 mM, 5 mM final concentration) at a rate of 26 μl/sec and a starting height of 115 μl.
Reading intervals: pre-incubation—120 sec. antagonist phase, addition of MES at 145 sec. and reading time with agonist 100 sec (total run time of 240 sec).
Fluorescence obtained after stimulation is corrected for the mean basal fluorescence (in modified Assay Buffer).
as §1

hASIC3 = target: T2, hASIC3 (Homo sapiens, UniProt Q9UHC3); assay: FlexStation assay on HEK293 cells expressing hASIC3; assay type: cell-based; design: expressed in transfected cells; host or cells: HEK293 cells; settings: for IC50: FlexStation (Flex), Tables A-F, read-out: Biological Data (IC50 uM) h3 (Flex)
T2 sequence (Q9UHC3 1-531): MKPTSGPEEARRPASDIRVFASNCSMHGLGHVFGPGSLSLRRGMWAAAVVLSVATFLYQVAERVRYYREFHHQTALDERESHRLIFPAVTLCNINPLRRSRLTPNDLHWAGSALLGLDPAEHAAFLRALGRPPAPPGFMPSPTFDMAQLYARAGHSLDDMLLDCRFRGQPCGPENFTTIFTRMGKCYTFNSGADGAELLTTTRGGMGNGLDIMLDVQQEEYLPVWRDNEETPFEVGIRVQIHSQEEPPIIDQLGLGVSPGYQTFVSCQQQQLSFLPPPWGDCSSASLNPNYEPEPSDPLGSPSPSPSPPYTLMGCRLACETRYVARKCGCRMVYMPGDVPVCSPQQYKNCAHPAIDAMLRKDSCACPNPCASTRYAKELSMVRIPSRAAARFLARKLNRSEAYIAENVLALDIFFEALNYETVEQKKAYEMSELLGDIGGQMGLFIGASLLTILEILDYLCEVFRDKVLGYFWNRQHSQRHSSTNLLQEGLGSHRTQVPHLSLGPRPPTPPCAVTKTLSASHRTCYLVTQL
Description: A vial of FMP dye (Molecular Devices) is resuspended in 10.5 ml of assay buffer (48.3 mM NaCl, 93 mM NMDG, 5 mM KCl, 5 mM CaCl2, 1 mM MgCl2, 10 mM HEPES, pH 7.4). The culture medium is aspirated from the wells, and 100 μl of the FMP loading solution is added to each well. The cells are incubated at 37° C. for 30 min.
After the loading period, the loading solution is left on the cells and the membrane potential-induced fluorescence is measured in FLIPR™ or FlexStation™ (Molecular Devices, USA), or any other suitable equipment known to the skilled in the art.
For cells co-expressing ASIC1a and ASIC3 channels (e.g. HEK293 cells), membrane potential dye (FMP dye) is used and the FlexStation settings are as above.
as §1, §2

[3] = test system: T3, hASIC3 (h3) and/or hASIC1a (h1a); assay: FlexStation/FLIPR assay, channel not marked in the cell; assay type: cell-based, human; settings: Table H, cells without channel mark; HEK293; read-out: EC50 (μM) Flex/FLIPR
T3 construct: EC50 (μM) in one experiment; HEK293
From the text: as §1, §2

hASIC1a [4] = target: T1, hASIC1a; assay: Whole-cell patch clamp of acid-induced currents in cells transfected with hASIC1a; assay type: cell-based; design: expressed in transfected cells; settings: Table H
Description: Another example of an in vitro assessment method consists of using mammalian heterologous expression systems, which are known to those skilled in the art, and include a variety of mammalian cell lines such as COS, HEK, e.g., HEK293 and/or CHO, cells. Cell lines are transfected with gated ion channel(s) and used to perform electrophysiology as follows:
All experiments are performed at room temperature (20-25° C.) in voltage clamp using conventional whole cell patch clamp methods (Neher, E., et al. (1978) Pfluegers Arch 375:219-228).
The amplifier used is the EPC-9 (HEKA-electronics, Lambrect, Germany) run by a Macintosh G3 computer via an ITC-16 interface. Experimental conditions are set with the Pulse-software accompanying the amplifier. Data is low pass filtered and sampled directly to hard-disk at a rate of 3 times the cut-off frequency.
Pipettes are pulled from borosilicate glass using a horizontal electrode puller (Zeitz-lnstrumente, Augsburg, Germany). The pipette resistances are 2-3 MOhms in the salt solutions used in these experiments. The pipette electrode is a chloridized silver wire, and the reference is a silver chloride pellet electrode (In Vivo Metric, Healdsburg, USA) fixed to the experimental chamber. The electrodes are zeroed with the open pipette in the bath just prior to sealing.
Coverslips with the cells are transferred to a 15 μl experimental chamber mounted on the stage of an inverted microscope (IMT-2, Olympus) supplied with Nomarski optics. Cells are continuously superfused with extracellular saline at a rate of 2.5 ml/min. After giga-seal formation, the whole cell configuration is attained by suction. The cells are held at a holding voltage of −60 mV and at the start of each experiment the current is continuously measured for 45 s to ensure a stable baseline. Solutions of low pH (<7) are delivered to the chamber through a custom-made gravity-driven flowpipe, the tip of which is placed approximately 50 μm from the cell. Application is triggered when the tubing connected to the flowpipe is compressed by a valve controlled by the Pulse-software. Initially, low pH (in general, pH 6.5) is applied for 5 s every 60 s. The sample interval during application is 550 μs. After stable responses are obtained, the extracellular saline as well as the low-pH solution are switched to solutions containing the compound to be tested. The compound is present until responses of repeatable amplitude are achieved. Current amplitudes are measured at the peak of the responses, and effect of the compounds is calculated as the amplitude at compound equilibrium divided by the amplitude of the current evoked by the pulse just before the compound was included.
The following salt solutions are used: extracellular solution (mM): NaCl (140), KCl (4), CaCl2 (2), MgCl2 (4), HEPES (10, pH 7.4); intracellular solution (mM): KCl (120), KOH (31), MgCl2 (1.785), EGTA (10), HEPES (10, pH 7.2). In general, compounds for testing are dissolved in 50% DMSO at 500 fold the highest concentration used.
CHO cells were transfected with hASIC1a and used to perform full dose-inhibition curves with Compound B, and Compound R. Results are expressed as a fraction of the control peak current obtained in the absence of the test substance.

hASIC1a [5] = target: T1, hASIC1a; assay: Two-electrode voltage clamp in Xenopus laevis oocytes expressing hASIC1a (OpusExpress); assay type: cell-based; design: expressed in transfected cells; host or cells: Xenopus laevis oocytes, nuclear microinjection of cDNA (e.g. in pCDNA3)
Description: Two-electrode voltage clamp electrophysiological assays in Xenopus laevis oocytes expressing gated ion channels are performed as follows:
Oocytes are surgically removed from adult Xenopus laevis and treated for 2 h at room temperature with 1 mg/ml type I collagenase (Sigma) in Barth's solution under mild agitation. Selected oocytes at stage IV-V are defolliculated manually before nuclear microinjection of 2.5-5 ng of a suitable expression vector, such as pCDNA3, comprising the nucleotide sequence encoding a gated ion channel subunit protein. In such an experiment, the oocytes express homomultimeric proton-gated ion channels on their surface. In an alternate experiment, one, two, three or more vectors comprising the coding sequences for distinct gated ion channel subunits are co-injected in the oocyte nuclei. In the latter case, oocytes express heteromultimeric proton-gated ion channels. […] Once impaled with the microelectrodes, oocytes are continuously superfused at 10-12 ml/min with a modified Ringer's solution containing 97 mM NaCl, 2 mM KCl, 1.8 mM CaCl2, and 10 mM HEPES brought to pH 7.4 with NaOH (Control Ringer). Test Ringer solution is prepared by replacing HEPES with MES and adjusting the pH to the desired acidic value. Compounds of the present invention are prepared in both the Control and Test Ringer solutions and applied to oocytes at room temperature through a computer-controlled switching valve system. […] Similarly, recordings can also be acquired in an automated multichannel oocytes system as the OpusExpress™ (Molecular Devices, Sunnyvale, Calif., USA).
Recordings were acquired from oocytes expressing homomeric hASIC1a using a two-electrode voltage-clamp configuration procedure as described herein.

[6] = FlexStation (Flex), Tables A-F, read-out: Biological Data (IC50 uM) h1a (Flex)
[7] = Table H, read-out: IC50 (μM) Opus Express (h1a)

SMILES: COc1ccc(-c2cc(C(=O)O)c3cc(Cl)ccc3n2)cc1 [Compound 38, 6-chloro-2-(4-methoxy-phenyl)-quinoline-4-carboxylic acid]
Biological Data (Flex), channel not given [1]: Not Active (Flex)

SMILES: COc1ccc(-c2cc(C(=O)O)c3ccccc3n2)cc1OC [Compound 39, 2-(3,4-Dimethoxy-phenyl)-quinoline-4-carboxylic acid]
Biological Data (Flex), channel not given [1]: Not Active (Flex)

SMILES: Cc1cc(N2CCCN(C)CC2)nc2cc(Cl)ccc12 [Compound F, 7-chloro-4-methyl-2-(4-methyl-[1,4]diazepan-1-yl)-quinoline]
EC50 [3]: < 10 µM | IC50 (μM) Patch Clamp (h1a) (hASIC1a [4]): Inactive

SMILES: Clc1ccc2c(N3CCNCC3)ccnc2c1 [Compound H, 7-chloro-4-piperazin-1-yl-quinoline]
IC50 (hASIC1a [2]; [6]): 2 to 10 µM | EC50 (hASIC3): < 10 µM | IC50 (hASIC3): 5 to 15 µM | IC50 (hASIC1a [5]; OpusExpress (OX), Tables A-F, h1a printed in some cells only, read-out: Biological Data (IC50 uM) h1a (OX)): 30 to 50 µM | IC50 (hASIC1a [5]; [7]): 43.7 µM

SMILES: COc1ccc(CN2CCN(c3cc(C)nc4ccccc34)CC2)cc1 [Compound Q, 4-[4-(4-methoxy-benzyl)-piperazin-1-yl]-2-methyl-quinoline]
EC50 [3]: < 10 µM | IC50 (hASIC3): 10 to 20 µM | IC50 (hASIC1a [5]; [7]): > 50 µM

The remaining lines, values ahead:

IC50 (hASIC1a [2]; [6]): 20 to 30 µM | IC50 (hASIC3): > 50 µM
SMILES: O=C(O)c1cccc(Nc2nc(-c3ccc(Cl)cc3Cl)nc3ccccc23)c1 [Compound 101, 3-[2-(2,4-dichloro-phenyl)-quinazolin-4-ylamino]-benzoic acid]

IC50 (hASIC1a [2]; calcium mobilization assay, HEK293, n=3-7, read-out: FPAT-ASIC1a human/HEK293/k21 IC50): > 20 µM
SMILES: Brc1ccc(-c2nc(N3CCNCC3)c3ccccc3n2)cc1 [Compound C, 2-(4-bromo-phenyl)-4-piperazin-1-yl-quinazoline]

EC50 [3]: > 10 µM | IC50 (μM) Patch Clamp (h1a) (hASIC1a [4]): Inactive | IC50 (μM) Opus Express (h1a) (hASIC1a [5]; Table H): Inactive
SMILES: Cc1ccc(-c2nc(Nc3ccc(C(=O)O)cc3)c3ccccc3n2)cc1 [Compound K, 4-(2-p-tolyl-quinazolin-4-ylamino)-benzoic acid]
